In PubChem BioAssay AID212 (DTP/NCI, 2004):
Several values for one entry are separate records, joined by “and”; a condition that tells them apart may be missing. Equal entries are not always repeated. Results filed as inconclusive are left out.

Tested on: BDF1 mice, colon carcinoma 38 sc, T/C %
Assay: NCI In Vivo Anticancer Drug Screen. Data for tumor model Colon Carcinoma 38 (subcutaneous) in B6D2F1 (BDF1) mice
Conditions: endpoint: median tumor weight (est.), higher = larger tumour
Outline: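 Compound antitumor activity was assessed in mice carrying transplantable tumors. Survival or tumor size was recorded, and each value is the treated-group measurement divided by that of the vehicle-treated control group.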

[1] = dose: 25.0 mg/kg/injection, schedule: Q07DX002 (ip), vehicle: saline
[2] = dose: 50.0 mg/kg/injection, schedule: Q07DX002 (ip), vehicle: saline
[3] = dose: 100.0 mg/kg/injection, schedule: Q07DX002 (ip), vehicle: saline
[4] = dose: 200.0 mg/kg/injection, schedule: Q07DX002 (ip), vehicle: saline
[5] = dose: 400.0 mg/kg/injection, schedule: Q07DX002 (ip), vehicle: saline
[6] = dose: 12.5 mg/kg/injection, schedule: Q07DX002 (ip), vehicle: saline with Tween-80
[7] = dose: 25.0 mg/kg/injection, schedule: Q07DX002 (ip), vehicle: saline with Tween-80
[8] = dose: 50.0 mg/kg/injection, schedule: Q07DX002 (ip), vehicle: saline with Tween-80
[9] = dose: 200.0 mg/kg/injection, schedule: Q07DX002 (ip), vehicle: saline with Tween-80
[10] = dose: 400.0 mg/kg/injection, schedule: Q07DX002 (ip), vehicle: saline with Tween-80

`C/C=C/C=C/c1cc2cc3c(c(O)c2c(=O)[nH]1)C1(CC3)C(O)=c2c(=O)c3c(=O)cc(OC)c(=O)c=3c(=O)c2=C1O` (centres undefined) was tested. Which T/C (dose: 0.06 mg/kg/injection, schedule: Q07DX002 (ip), vehicle: DMSO) did it give?
Its T/C is 74 % of control and 97 % of control.

What about the T/C (dose: 0.12 mg/kg/injection, schedule: Q07DX002 (ip), vehicle: DMSO) of the same molecule?
The T/C was 115 % of control and 91 % of control.

And the T/C (dose: 0.15 mg/kg/injection, schedule: Q07DX002 (ip), vehicle: DMSO)?
Its T/C is 81 % of control.

And the T/C (dose: 0.25 mg/kg/injection, schedule: Q07DX002 (ip), vehicle: DMSO)?
The T/C was 57 % of control.

What about the T/C (dose: 0.3 mg/kg/injection, schedule: Q07DX002 (ip), vehicle: DMSO) of the same molecule?
The T/C was 85 % of control.

And the T/C (dose: 0.5 mg/kg/injection, schedule: Q07DX002 (ip), vehicle: DMSO)?
The T/C was 79 % of control and 93 % of control.

What about the T/C (dose: 0.61 mg/kg/injection, schedule: Q07DX002 (ip), vehicle: DMSO) of the same molecule?
Its T/C is 87 % of control.

And the T/C (dose: 1.0 mg/kg/injection, schedule: Q07DX002 (ip), vehicle: DMSO)?
The T/C was 114 % of control and 102 % of control.

And the T/C (dose: 1.22 mg/kg/injection, schedule: Q07DX002 (ip), vehicle: DMSO)?
The T/C was 81 % of control.

And the T/C (dose: 2.0 mg/kg/injection, schedule: Q07DX002 (ip), vehicle: DMSO)?
Its T/C is 121 % of control.

With `CCC(=O)O[C@H]1CC[C@H]2[C@@H]3CCC4=CC(=O)CC[C@]4(C)[C@H]3CC[C@]12C` as the molecule, how does the T/C (dose: 20.0 mg/kg/injection, schedule: Q07DX002 (ip), vehicle: Klucel (hydroxypropylcellulose) (HPC)) read?
Its T/C is 72 % of control.

What about the T/C (dose: 40.0 mg/kg/injection, schedule: Q07DX002 (ip), vehicle: Klucel (hydroxypropylcellulose) (HPC)) of the same molecule?
Its T/C is 71 % of control and 81 % of control.

What about the T/C (dose: 40.0 mg/kg/injection, schedule: Q07DX002 (ip), vehicle: suspension in saline) of the same molecule?
Its T/C is 60 % of control.

What about the T/C (dose: 80.0 mg/kg/injection, schedule: Q07DX002 (ip), vehicle: suspension in saline) of the same molecule?
The T/C was 93 % of control.

And the T/C (dose: 160.0 mg/kg/injection, schedule: Q07DX002 (ip), vehicle: suspension in saline)?
The T/C was 86 % of control.

And the T/C (dose: 320.0 mg/kg/injection, schedule: Q07DX002 (ip), vehicle: suspension in saline)?
Its T/C is 99 % of control.

What about the T/C (dose: 640.0 mg/kg/injection, schedule: Q07DX002 (ip), vehicle: Klucel (hydroxypropylcellulose) (HPC)) of the same molecule?
The T/C was 89 % of control and 100 % of control and 101 % of control.

What about the T/C (dose: 640.0 mg/kg/injection, schedule: Q07DX002 (ip), vehicle: suspension in saline) of the same molecule?
The T/C was 86 % of control.

What does the source list for `Nc1nc(=S)c2ncn(C3CC(O)C(CO)O3)c2[nH]1` (centres undefined)?
T/C (dose: 4.0 mg/kg/injection, schedule: Q07DX003 (ip), vehicle: saline with Tween-80): 63 % of control; T/C (dose: 5.0 mg/kg/injection, schedule: Q07DX003 (ip), vehicle: saline with Tween-80): 32 % of control; T/C (dose: 8.0 mg/kg/injection, schedule: Q07DX003 (ip), vehicle: saline with Tween-80): 111 % of control; T/C (dose: 10.0 mg/kg/injection, schedule: Q07DX003 (ip), vehicle: saline with Tween-80): 22 % of control; T/C (dose: 16.0 mg/kg/injection, schedule: Q07DX003 (ip), vehicle: saline with Tween-80): 39 % of control; T/C (dose: 20.0 mg/kg/injection, schedule: Q07DX003 (ip), vehicle: saline with Tween-80): 25 % of control; T/C (dose: 32.0 mg/kg/injection, schedule: Q07DX003 (ip), vehicle: saline with Tween-80): 89 % of control; T/C (dose: 40.0 mg/kg/injection, schedule: Q07DX003 (ip), vehicle: saline with Tween-80): 14 % of control; T/C (dose: 64.0 mg/kg/injection, schedule: Q07DX003 (ip), vehicle: saline with Tween-80): 110 % of control; T/C (dose: 80.0 mg/kg/injection, schedule: Q07DX003 (ip), vehicle: saline with Tween-80): 4 % of control; T/C (dose: 128.0 mg/kg/injection, schedule: Q07DX003 (ip), vehicle: saline with Tween-80): 36 % of control

With `CC[C@]1(O)C[C@H]2CN(CCc3c([nH]c4ccccc34)[C@@](C(=O)OC)(c3cc4c(cc3OC)N(C)[C@H]3[C@@](O)(C(=O)OC)[C@H](OC(C)=O)[C@]5(CC)C=CCN6CC[C@]43[C@@H]65)C2)C1` as the molecule, how does the T/C (dose: 4.0 mg/kg/injection, schedule: Q07DX002 (ip), vehicle: saline) read?
Its T/C is 20 % of control and 22 % of control.

What does the source list for `COc1ccc(-c2cc(=O)c3cccc(CC(=O)O)c3o2)cc1OC`?
T/C (dose: 25.0 mg/kg/injection, schedule: Q07DX002 (ip), vehicle: Klucel (hydroxypropylcellulose) (HPC)): 106 % of control; T/C (dose: 100.0 mg/kg/injection, schedule: Q07DX002 (ip), vehicle: Klucel (hydroxypropylcellulose) (HPC)): 117 % of control; T/C (dose: 200.0 mg/kg/injection, schedule: Q07DX002 (ip), vehicle: Klucel (hydroxypropylcellulose) (HPC)): 82 % of control

`COC(=O)CC(N)C(=O)O` (centres undefined) was tested. Which T/C [1] did it give?
Its T/C is 95 % of control.

And the T/C [2]?
Its T/C is 70 % of control.

What about the T/C [3] of the same molecule?
Its T/C is 86 % of control.

What about the T/C [4] of the same molecule?
Its T/C is 61 % of control.

And the T/C [5]?
Its T/C is 50 % of control.

`O/N=C/c1ccccc1O.O/N=C/c1ccccc1O.[Cu]` was tested. Which T/C (dose: 3.12 mg/kg/injection, schedule: Q07DX002 (ip), vehicle: saline with Tween-80) did it give?
Its T/C is 89 % of control and 100 % of control.

What about the T/C (dose: 6.25 mg/kg/injection, schedule: Q07DX002 (ip), vehicle: saline with Tween-80) of the same molecule?
Its T/C is 92 % of control and 100 % of control.

And the T/C [6]?
Its T/C is 102 % of control and 108 % of control.

What about the T/C [7] of the same molecule?
The T/C was 87 % of control and 104 % of control.

What does the source list for `O=C(O)C1Cc2nc[nH]c2CN1CO` (centres undefined)?
T/C [7]: 93 % of control; T/C [8]: 117 % of control and 98 % of control; T/C (dose: 100.0 mg/kg/injection, schedule: Q07DX002 (ip), vehicle: saline with Tween-80): 113 % of control and 99 % of control; T/C [9]: 86 % of control; T/C [10]: 93 % of control; T/C (dose: 800.0 mg/kg/injection, schedule: Q07DX002 (ip), vehicle: saline with Tween-80): 89 % of control

Which T/C (dose: 12.5 mg/kg/injection, schedule: Q07DX003 (ip), vehicle: water) does the source give for `Nc1ncnc2c1ncn2C1OC(COP(=O)(O)O)C(O)C1O` (centres undefined) here?
The T/C was 79 % of control.

And the T/C (dose: 25.0 mg/kg/injection, schedule: Q07DX003 (ip), vehicle: water)?
The T/C was 70 % of control.

And the T/C (dose: 50.0 mg/kg/injection, schedule: Q07DX003 (ip), vehicle: water)?
Its T/C is 60 % of control.

And the T/C (dose: 80.0 mg/kg/injection, schedule: Q07DX002 (ip), vehicle: water)?
The T/C was 81 % of control.

And the T/C (dose: 100.0 mg/kg/injection, schedule: Q07DX003 (ip), vehicle: water)?
Its T/C is 95 % of control.

And the T/C (dose: 160.0 mg/kg/injection, schedule: Q07DX002 (ip), vehicle: water)?
The T/C was 70 % of control.

What about the T/C [4] of the same molecule?
Its T/C is 94 % of control.

And the T/C (dose: 200.0 mg/kg/injection, schedule: Q07DX003 (ip), vehicle: water)?
The T/C was 118 % of control.

What about the T/C (dose: 320.0 mg/kg/injection, schedule: Q07DX002 (ip), vehicle: water) of the same molecule?
Its T/C is 80 % of control.

What about the T/C [5] of the same molecule?
The T/C was 89 % of control.

What about the T/C (dose: 400.0 mg/kg/injection, schedule: Q07DX003 (ip), vehicle: water) of the same molecule?
The T/C was 56 % of control.

What about the T/C (dose: 640.0 mg/kg/injection, schedule: Q07DX002 (ip), vehicle: water) of the same molecule?
Its T/C is 86 % of control.

What about the T/C (dose: 1600.0 mg/kg/injection, schedule: Q07DX002 (ip), vehicle: saline) of the same molecule?
Its T/C is 77 % of control.

What about the T/C (dose: 3200.0 mg/kg/injection, schedule: Q07DX002 (ip), vehicle: saline) of the same molecule?
Its T/C is 50 % of control.

For `C[CH2][Ge]1([CH2]C)[CH2]CC2(CCN(CCCN(C)C)C2)C[CH2]1`, which T/C (dose: 6.25 mg/kg/injection, schedule: Q07DX002 (ip), vehicle: saline) is on record?
The T/C was 97 % of control.

And the T/C [1]?
Its T/C is 105 % of control.

What about the T/C [2] of the same molecule?
The T/C was 110 % of control.

`CCOC(=O)C(C)(C)Oc1ccc(Cl)cc1` was tested. Which T/C [6] did it give?
The T/C was 60 % of control.

And the T/C [8]?
Its T/C is 94 % of control and 100 % of control.

And the T/C [9]?
The T/C was 110 % of control.

What about the T/C [10] of the same molecule?
Its T/C is 86 % of control.

What does the source list for `CCOC(=O)C1=C(C#N)C2(CCC(OCc3ccccc3)CC2)C(=O)O1` (centres undefined)?
T/C [1]: 47 % of control; T/C (dose: 25.0 mg/kg/injection, schedule: Q07DX002 (ip), vehicle: suspension in saline): 87 % of control; T/C [2]: 53 % of control; T/C [3]: 35 % of control; T/C (dose: 100.0 mg/kg/injection, schedule: Q07DX002 (ip), vehicle: suspension in saline): 115 % of control; T/C [4]: 73 % of control; T/C [5]: 47 % of control; T/C (dose: 400.0 mg/kg/injection, schedule: Q07DX002 (ip), vehicle: suspension in saline): 102 % of control; T/C (dose: 800.0 mg/kg/injection, schedule: Q07DX002 (ip), vehicle: saline): 64 % of control; T/C (dose: 800.0 mg/kg/injection, schedule: Q07DX002 (ip), vehicle: suspension in saline): 102 % of control
